From US20190290728A1, “METHODS RELATED TO BREAKING T CELL EXHAUSTION” (CHILDREN'S MEDICAL CENTER CORPORATION, priority 2016, published 2019)

Tested on: Jurkat cells expressing TMEM16F-RFP
Experiment: TIRF live imaging of TMEM16F-positive vesicle movement at the TCR activation site
Type: cell-based
Settings: Jurkat cells pretreated with 1 μM inhibitor for 30 min, stimulated on αCD3-coated coverslips, TIRF microscopy (FIGS. 7D, 7E)
Source text: TMEM16F is recruited to the immunological synapse and resides in late endosomes. To elucidate the molecular mechanism how TMEM16F controls T cell activation, its cellular localization and function were tracked. To this end, T cells transduced with fluorescent TMEM16F were cocultured with antigen-presenting B cells. […] Of note, TMEM16F appeared mainly in intracellular structures instead of the plasma membrane (FIG. 7A). […] In order to test the mechanics of TMEM16F-positive vesicle movement, TIRF live imaging was performed while modulating the functions of the cytoskeleton. […] By contrast, treatment with nocodazole that disrupts the microtubule network reduced migration of TMEM16F vesicles, indicating the movement of TMEM16F was largely mediated by microtubules but not actin (FIGS. 7D and 7E).
TIRF Microscopy. Sample preparation for TIRF microscopy was performed as previously reported with minor modifications (Bunnell et al., 2003). […]
Image Processing. […] The number of TMEM16F-positive spots was plotted using Prism 6.0™ Quantifications of LBPA-positive vesicles, LAT-GFP, and SH2-ZAP70-mCherry were done similarly. Intensity of SH2-ZAP70-mCherry was determined using intensity vs. time plug-in. For the colocalization of TMEM16F and Rab proteins, fluorescence intensity for each protein was measured on a line manually drawn along TMEM16F-positive vesicles, and values (pixel) were plotted. […]

SMILES	recruitment of TMEM16F to the T cell activation site / migration of TMEM16F vesicles
Cc1ccc2c(c1)C(=O)C1(O)CCN(c3ccccc3)C1=N2 (centres unmarked) [blebbistatin]	did not alter
COC(=O)Nc1nc2ccc(C(=O)c3cccs3)cc2[nH]1 [nocodazole]	reduced
